{"source": "patent US4132738A", "about": "“Preparation of 15-deoxy-16-hydroxyprostaglandins” (Miles Laboratories, Inc., priority 1978, dated 1979)", "key": {"[1]": {"system": "femoral blood flow in the anesthetized dog", "assay": "Effects on femoral blood flow in the anesthetized dog", "assay_type": "in vivo", "details": "comparison in words", "method": "The peripheral vasodilator or constrictor effects of test compounds were determined in mongrel dogs of either sex, weighing between 10 and 20 kg, anesthetized intravenously with 35 mg/kg of pentobarbital sodium. An external iliac artery was dissected immediately above the femoral arch for a length of approximately 5 cm, and a previously calibarated, non-cannulating electromagnetic-flowmeter sensor with a lumen between 2.5 and 3.5 mm was placed snugly around the vessel. Cannulas were placed in a branch of the artery arising distally to the location of the flowmeter sensor for intraarterial drug administrations, in the contralateral femoral artery for systemic blood pressure recording, and in the trachea for artificial respiration with room air. Femoral blood flow and systemic blood pressure were continuously recorded with an electromagnetic flowmeter and pressure transducer, respectively.\nAfter an adequate control period, test compounds were injected intraarterially at one log-spaced doses ranging from 0.001 to 10 mcg, in a volume of 0.5 ml and at 5 to 10 minute intervals. […] The dose changing blood flow by 100 ml/min (ED100 ml/min) was calculated graphically and was used for scoring activity as follows: […]"}, "[2]": {"system": "gastric secretion in the rat", "assay": "Effects on gastric secretion in the rat", "assay_type": "in vivo", "details": "comparison in words", "method": "A procedure based on that described by Lipman, W. (J. Pharm. Pharmacol., 21: 335 [1968]) was used to assess the influence of test compounds on gastric secretion. Rats of one sex weighing 150 to 200 g were randomly divided into groups of six animals each and fasted for 48 hours previous to the experiments, water being available ad libitum. The animals were anesthetized with ether, the abdomen opened through a midline incision, and the pylorus ligated. Test compounds were diluted from stock solution so as to administer a dose of 1.5 mg/kg in a volume equivalent to 1 ml/kg. Subcutaneous injections were applied immediately after surgery and again 2 hours later, so that a total dose of 3.0 mg/kg was administered. Dilutions were made with phosphate buffer (pH 7.38) as recommended by Lee et al. (Prostaglandins, 3: 29 [1973]) in order to insure adequate stability of drugs at the subcutaneous depot. Each compound was tested in one group of rats; an additional control group received only the vehicle.\nFour hours after pyllric ligation the animals were killed with ether, the cardias ligated, and the stomachs removed. The volume of gastric secretion was measured and the contents centrifuged at 5000 rpm for 10 minutes. Total acid in the supernatant was titrated against a 0.1 N sodium hydroxide solution and the amount expressed in mEq.\nVolume and total acid values of the treated group were compared with those of the controls […]. Antisecretory activity was scored according to the following scale: […]"}, "guinea pig trachea": {"system": "guinea pig trachea", "assay": "Effects on the guinea pig trachea in vitro", "assay_type": "cell-based", "details": "comparison in words", "method": "A male guinea pig weighing 200-500 g was killed by a blow on the head. A 20 mm length of the trachea was dissected from the animal, transferred to a petri dish containing Krebs' solution (aerated with 95% O2 and 5% CO2 at 37° C.), and cut longitudinally opposite the tracheal muscle. The tissue was then cut transversely three quarters of the distance across, a second cut in the opposite direction (again three quarters of the distance across the tissue) was made and the procedure was continued for the whole tissue. The ends of the trachea were pulled to form a zig-zig shaped strip. The tracheal strip used in the experiment was approximately 30 mm when extended under 0.25-0.5 g load in the tissue bath. Cotton thread was tied to one end of the tissue, and linen thread to the other. It was attached via the linen thread to a glass hook in a 5 ml isolated tissue bath containing Krebs' solution (37° C., aerated with a mixture of 95% O2 and 5% CO2). The opposite end was attached via cotton to an isotonic Harvard transducer (Model 386 Heart/Smooth Muscle Transducer, Harvard Apparatus). The load on the transducer lever was small, usually 0.3 g, with a range of 0.25-0.5 g, and the magnification high, 80 fold using an appropriate twin-channel pen recorder. A minimum of thirty minutes was allowed before applying a test compound to the tissue. Test compounds were then applied (in volumes of 0.5 ml) at thirty minute intervals, being in contact with the tissue for five minutes followed by an overflow washout time of twenty seconds.\nProstaglandin E1, at a bath concentration of 0.1 mcg/ml, was then tested repeatedly on two such strips, obtained from two different animals, until two responses (the values of which are recorded) differing by no more than 25% occur. A test compound was then added to the same two strips at bath concentrations of 0.01, 0.1, 1.0, and 10.0 mcg/ml and the effects of the compound were recorded. After the test compound had been evaluated at the highest concentration, PGE1 was retested at 0.1 mcg/ml (and the value of the response recorded) to insure that the viability of the strips was retained during the experiment. The mean of the effects of the test compound on the two strips was then calculated for each concentration, and, biased on the resulting values, an activity value was assigned as follows: […]"}, "[3]": {"system": "blood pressure in the hypertensive rat", "assay": "Effects on systolic blood pressure in the hypertensive rat", "assay_type": "in vivo", "set-up": "key: 0: Not significant at any time interval; 1: Significant at one time interval; 2: Significant at two time intervals", "details": "1 mg/kg intraperitoneal; 2, 4, 6 and 9 hours", "method": "The acute anithypertensive activity of test compounds was determined in rats made hypertensive by the procedure of Grollman (Proc. Soc. Exper Biol. Med., 57: 102 [1944]). Female rats weighing between 60 and 100 g were anesthetized with ether, the right kidney approached through a flank retroperitoneal incision, decapsulated and tied with a figure-of-eight-ligature. The animals were left to recover and two weeks later were again anesthetized and the contralateral kidney removed. Four weeks after the second operation the rats were subjected to indirect blood pressure measurements and those showing systolic pressure values greater than 160 mmHg were selected for drug testing.\nBlood pressure was measured in the tail with an inflatable occluding cuff placed at the base of the extremity and a pulse detector located distally. The cuff was inflated to approximately 300 mmHg and was slowly deflated until pulsations appeared, indicating the level of systolic pressure; diastolic pressure was not recorded by this procedure. All measurements were carried out in unanesthetized, unsedated animals maintained in a warm environment during the recording procedure and for at least 6 hours before. In all cases, three pressure readings were obtained in succession and mean values were calculated thereof.\nExperiments were carried out in groups of five hypertensive rats in which systolic pressure was determined immediately before and 2, 4, 6 and 9 hours after intraperiotoneal administration of the test compound at a dose of 1 mg/kg. Drugs were diluted from stock solutions with phosphate buffer (Lee et. al., Prostaglandins, 29 [1973]), so as to inject this quantity in a volume of 1 ml/kg. Changes from control blood pressure values were calculated for each interval both in mmHg and in percent, and evaluated for significance by means of Wilcoxon's signed rank test (Wilcoxon, R. and Wilcox, R. A., \"Some Rapid Approximate Statistical Procedures,\" Lederle Laboratories, Pearl River [1964])."}}, "data": [{"smiles": "CCCCC(C)(O)C/C=C/[C@H]1[C@H](O)CC(=O)[C@@H]1CCCCCCC(=O)OC", "note": "(stereo partly drawn) [TR 4704, Methyl 11α, 16RS-dihydroxy-16-methyl-9-oxoprost-13E-oate, reference compound]", "values": [{"measurement": "Femoral blood flow value, methyl ester versus carbinol", "setting": "[1]", "result": "significantly and undesirably higher"}, {"measurement": "GAS value, carbinol versus methyl ester analogue", "setting": "[2]", "result": "the same"}, {"measurement": "Guinea pig trachea value, carbinol versus methyl ester analogue", "setting": "guinea pig trachea", "result": "the same"}, {"measurement": "Blood Pressure Hypertensive Rat: activity value", "setting": "[3]", "result": 0}]}, {"smiles": "CCCCC(O)C/C=C/[C@H]1[C@H](O)CC(=O)[C@@H]1CCCCCCC(=O)OC", "note": "(stereo partly drawn) [TR 4705, Methyl 11α, 16RS-dihydroxy-9-oxoprost-13E-en-1-oate, reference compound]", "values": [{"measurement": "Femoral blood flow value, methyl ester versus carbinol", "setting": "[1]", "result": "slightly higher"}, {"measurement": "GAS value, carbinol versus methyl ester analogue", "setting": "[2]", "result": "the same"}, {"measurement": "Guinea pig trachea value, carbinol versus methyl ester analogue", "setting": "guinea pig trachea", "result": "the same"}, {"measurement": "Blood Pressure Hypertensive Rat: activity value", "setting": "[3]", "result": 0}]}]}
